Results reported in publication PMC13128454, “Mutant p53 protein accumulation is selectively targetable by proximity-inducing drugs” (Nature Chemical Biology, 2025).
“And” between values parts separate entries of the source, which are not always exact repeats. Identical values can stand only once. Like-named read-outs stand apart in the source and are kept apart here.

What was measured:
[1] = CellTiter-Glo cell viability; assay type: cell-based; details: human, p53_construct Mut, CTG 4 days, read-out: mean (normalized viability)
[2] = system: Calu-1 cells stably expressing Halo–p53-R273H (FL)–mCherry–2A–mTagBFP2-V5; assay: CellTiter-Glo cell viability; assay type: cell-based; details: CTG 4 days; for replicates (raw CTG signal): p53_construct Mut

CC[C@@H]1C(=O)N(C)c2cnc(Nc3ccc(C(=O)NC4CCN(C)CC4)cc3OC)nc2N1C1CCCC1 [BI2536]
viability at 4 days ([1]; Compound_conc 0.0488281): 112% | viability at 4 days ([1]; Compound_conc 0.0976562): 115% | viability at 4 days ([1]; Compound_conc 0.195312): 107% | viability at 4 days ([1]; Compound_conc 0.390625): 106% | viability at 4 days ([1]; Compound_conc 0.78125): 119% | viability at 4 days ([1]; Compound_conc 1.5625): 104% | viability at 4 days ([1]; Compound_conc 3.125): 113% | viability at 4 days ([1]; Compound_conc 6.25): 84.3% | viability at 4 days ([1]; Compound_conc 12.5): 70.7% | viability at 4 days ([1]; Compound_conc 25): 62% | viability at 4 days ([1]; Compound_conc 50): 47.3% | viability at 4 days ([1]; Compound_conc 100): 41.4% | differential proliferation effect ([2]; Calu-1 p53 WT versus p53-R273H): lacked a differential proliferation effect | replicates (raw CTG signal) ([2]; Compound_conc 0.0488281): 197890 and 183273 and 187583 and 162992 | replicates (raw CTG signal) ([2]; Compound_conc 0.0976562): 191053 and 161144 and 203266 and 199816 | replicates (raw CTG signal) ([2]; Compound_conc 0.195312): 176045 and 169600 and 186049 and 169525 | replicates (raw CTG signal) ([2]; Compound_conc 0.390625): 185229 and 162171 and 189977 and 157434 | replicates (raw CTG signal) ([2]; Compound_conc 0.78125): 218482 and 178554 and 204635 and 180452 | replicates (raw CTG signal) ([2]; Compound_conc 1.5625): 174155 and 148473 and 186714 and 171263 | replicates (raw CTG signal) ([2]; Compound_conc 3.125): 194944 and 176651 and 192942 and 172246 | replicates (raw CTG signal) ([2]; Compound_conc 6.25): 144484 and 119258 and 155344 and 132872 | replicates (raw CTG signal) ([2]; Compound_conc 12.5): 123471 and 113233 and 124855 and 101499 | replicates (raw CTG signal) ([2]; Compound_conc 25): 102356 and 92186 and 120326 and 90854 | replicates (raw CTG signal) ([2]; Compound_conc 50): 87813 and 79696 and 71081 and 71223 | replicates (raw CTG signal) ([2]; Compound_conc 100): 63459 and 73795 and 72267 and 61765
